One assay deals with S. aureus. In words: Antibiotic potency: CD50 in mice challenged with a lethal dose of microorganism. The format is in vivo. The note with it: oral intubation at 0, 24, 48 and 72 hours after interperitoneal challenge with S. aureus, dose curing 50% of mice, mean (95% confidence limits). The protocol:
(§1) The antibiotic potency of the salts of the present invention is illustrated by the data below providing CD50's of the various antibiotic agents, dissolved in inert vehicle, when administered to mice by oral intubation at 0, 24, 48, and 72 hours after challenge of the mice with an interperitoneally administered dose of microorganism which, in the absence of antibiotic agent, would be lethal. The CD50 for an agent is the dose at which 50% of the mice are cured under such a dosing schedule. In the data below the first number in each entry is the mean value and the numbers in parenthesis are the 95% confidence limits: […]

Another assay relates to S. pyrogenes (UC 152). Described as above. The note with it: oral intubation at 0, 24, 48 and 72 hours after interperitoneal challenge with S. pyrogenes (UC 152), dose curing 50% of mice, mean (95% confidence limits); for ED50: Mus musculus. It counts as in vivo. The method, then: as §1

Counter-ions that a name gives are not always drawn.

As a reminder, the ED50 is the dose at which the effect has come halfway, by size or by number of responders. Low values mean an effect at a small dose, high ones a need for a large dose. As to `CC1(C)S[C@@H]2[C@H](NC(=O)[C@H](N)c3ccccc3)C(=O)N2[C@H]1C(=O)O` [ampicillin, 6-[D-(2-amino-2-phenylacetamido)] penicillanicacid], the ED50 came to 2 µmol/kg in the assay on S. aureus (Staphylococcus aureus, po) and 0.49 µmol/kg in the assay on S. pyrogenes (UC 152).
For `CCOC(=O)OC(C)OC(=O)[C@@H]1N2C(=O)[C@@H](NC(=O)[C@H](N)c3ccccc3)[C@H]2SC1(C)C` (stereo partly drawn) [bacampicillin 1-naphthalene-sulfonate, Bacampicillin 1-Naphthalenesulfonate], the values for the CD50 with S. aureus and in the assay on S. pyrogenes (UC 152) were 0.74 (0.43-1.3) micromoles/kg and 0.15 (0.10-0.20) micromoles/kg, respectively.
Regarding `CCOC(=O)OC(C)OC(=O)[C@@H]1N2C(=O)[C@@H](NC(=O)[C@H](N)c3ccccc3)[C@H]2SC1(C)C` (stereo partly drawn) [bacampicillin-HCl, bacampicillin hydrochloride], the CD50 in the assay with S. aureus (hydrochloride) is on record as 1.5 (1.0-2.3) micromoles/kg. For the same molecule, the ED50 with S. pyrogenes (UC 152) turned out to be 0.19 µmol/kg.

These data come from patent publication EP0089767A1, “Acid addition salts of a penicillanic acid derivative” (UPJOHN LIMITED, priority 1982, dated 1983).
